Several values for one entry are separate records, joined by “and”; a condition that tells them apart may be missing. Identical values can stand only once. Entries after “also recorded” stand apart in the source; their conditions may differ.
Columns and labels:
[1] = test system: LPS-induced lung neutrophilia; assay: LPS-induced lung neutrophilia: total and neutrophil cell counts in BALF; type: in vivo, BALB/c mice; settings: for Neutrophils in BALF: % reduction / Total cells/white blood cells in BALF: % reduction / Neutrophils in BALF, Mean / Total cells/white blood cells in BALF, Mean / Neutrophils in BALF, individual mice / Total cells/white blood cells in BALF, individual mice: LPS; for Neutrophils in BALF, Mean / Total cells/white blood cells in BALF, Mean / Neutrophils in BALF, individual mice / Total cells/white blood cells in BALF, individual mice: BALF 4 h after LPS; for Neutrophils in BALF, individual mice / Total cells/white blood cells in BALF, individual mice: listed as Lef
Method: Six-week-old male BALB/c mice (Charles River, Calco, Italy) were singly housed in a temperature-controlled (22°C±2°C) environment with a 12:12-hour light:dark cycle and free access to food and water. Mice were given ≥7 days for acclimation before all procedures. […] One day before the start of experimental procedures, all animals were randomized into 6 groups (n = 8/group). Animal group assignment was not blinded.
LPS lyophilized powder (2 mg; Sigma-Aldrich Chemie GmbH, Munich, Germany) from Escherichia coli (O111:B4) was dissolved in 10 mL cold saline (0.9%; Pliva, Zagreb, Croatia), vortexed, and further diluted by mixing 2 mL of this solution with 2 mL saline to reach a final concentration of 5 μg LPS/50 μL saline. […] Ketamine hydrochloride (Narketan 10) was acquired from Vetoquinol (Bern, Switzerland), and xylazine hydrochloride (Rompun, 2%) was acquired from Bayer (Leverkusen, Germany).
To induce pulmonary neutrophilia, mice in the control group received intranasal (IN) 50 μL saline, and all other animals received 5 μg LPS/50 μL saline IN per mouse.
Tracheostomy was performed, and a Buster cat catheter (1.0 × 130 mm; Kruuse, Langeskov, Denmark), shortened to 3 cm, was clamped into the trachea. The lungs were washed 3 times with cold phosphate-buffered saline (PBS; Sigma-Aldrich Chemie GmbH) in a total volume of 1 mL (0.4, 0.3, and 0.3 mL). The collected BALF samples were centrifuged (1303×g, 5 min, 4°C), and resulting cell pellets were each resuspended in 600 μL PBS. Samples were immediately analyzed for total and differential neutrophil cell counts via automated hematology analyzer (XT-2000iV; Sysmex, Kobe, Japan).
Differences between treated versus vehicle groups were determined using the Mann-Whitney test and were considered statistically significant when P<0.05. Outliers in the analysis of cytokine and chemokine concentrations were identified using the Grubbs test. No criteria were set for inclusion/exclusion of animals during the experiment or data points during the analysis.

[2] = test system: human neutrophils; assay: Cytotoxicity in human neutrophils (CellTiter Glo); type: cell-based
Method: For the chemotaxis and cytotoxicity evaluations, average relative light unit values were calculated from all untreated vehicle samples and, for each sample, percentage of vehicle value was calculated. The tested compound was considered cytotoxic if reduction from untreated vehicle was ≥20%.

[3] = test system: J774.2 mouse macrophages; assay: Cytotoxicity in J774.2 mouse macrophages (adenylate kinase release, ToxiLight); type: cell-based; settings: for cell viability: J774.2 cells; for fold-change of adenylate kinase release at test concentration vs vehicle control, Mean ± SEM: J774.2 mouse macrophages, n=2
Method: (§1) The effect of t est compounds on cell viabilit y of J 774.2 macrophages and human PBMCs […]
(§2) was determined b y comp aring th e aden yl ate kinas e signal obtain ed in the p resence of diff er ent concentrations of compounds with those obtained in DMSO (vehicle) control. Signals were […]
(§3) divided,and the results were ex pressed as fold-change versus v ehicle con trol .

[4] = test system: human PBMCs; assay: Cytotoxicity in human PBMCs (adenylate kinase release, ToxiLight); type: cell-based; settings: for fold-change of adenylate kinase release at test concentration vs vehicle control, Mean ± SEM: human PBMCs, n=2
Method: as §1, §2, §3

[5] = Experiment 1, 10 mg/kg SC, 10 mg/kg
[6] = Experiment 1, 30 mg/kg SC, 30 mg/kg
[7] = Experiment 1, 100 mg/kg SC, 100 mg/kg
[8] = Experiment 2, 35 mg/kg SC, 35 mg/kg
[9] = Experiment 2, 70 mg/kg SC, 70 mg/kg
[10] = Experiment 2, 140 mg/kg SC, 140 mg/kg

## C=C[C@]1(C)C[C@@H](OC(=O)CS[C@@H]2CC[C@@H](N)C[C@H]2O)[C@]2(C)[C@H](C)CC[C@]3(CCC(=O)[C@H]32)[C@@H](C)[C@@H]1O [Lefamulin]
[1]; 10, 30, and 100 mg/kg SC 30 min before intranasal LPS, 4 hours postchallenge, vs vehicle control
  total cell and neutrophil recruitment to the lungs (measured in BALF): dose-dependent reduction; also recorded: almost complete reduction
[1]; Experiment 1, 10 mg/kg SC
  Neutrophils in BALF: % reduction: 37%
  Total cells/white blood cells in BALF: % reduction: 50%
  Neutrophils in BALF, Mean: 3.3e+08 L⁻¹
  Total cells/white blood cells in BALF, Mean: 5e+08 L⁻¹
[1]; [5]
  Neutrophils in BALF, individual mice: 4.7e+08 L⁻¹ and 2.2e+08 L⁻¹ and 1.9e+08 L⁻¹ and 3.7e+08 L⁻¹ and 3.1e+08 L⁻¹ and 1e+08 L⁻¹ and 4.5e+08 L⁻¹ and 4.9e+08 L⁻¹
  Total cells/white blood cells in BALF, individual mice: 6.6e+08 L⁻¹ and 5.9e+08 L⁻¹ and 6.1e+08 L⁻¹ and 3e+08 L⁻¹ and 5.1e+08 L⁻¹ and 6.3e+08 L⁻¹ and 5e+08 L⁻¹ and 1.7e+08 L⁻¹
[1]; Experiment 1, 30 mg/kg SC
  Neutrophils in BALF: % reduction: 59%
  Total cells/white blood cells in BALF: % reduction: 78%
  Neutrophils in BALF, Mean: 2.2e+08 L⁻¹
  Total cells/white blood cells in BALF, Mean: 4.2e+08 L⁻¹
[1]; [6]
  Neutrophils in BALF, individual mice: 2.1e+08 L⁻¹ and 3.8e+08 L⁻¹ and 1.2e+08 L⁻¹ and 2.5e+08 L⁻¹ and 1.7e+08 L⁻¹ and 2.3e+08 L⁻¹ and 1.6e+08 L⁻¹
  Total cells/white blood cells in BALF, individual mice: 2.7e+08 L⁻¹ and 3.7e+08 L⁻¹ and 3.5e+08 L⁻¹ and 6.6e+08 L⁻¹ and 2.6e+08 L⁻¹ and 3.9e+08 L⁻¹ and 3.8e+08 L⁻¹
[1]; Experiment 1, 100 mg/kg SC
  Neutrophils in BALF: % reduction: 70%
  Total cells/white blood cells in BALF: % reduction: 100%
  Neutrophils in BALF, Mean: 1.6e+08 L⁻¹
  Total cells/white blood cells in BALF, Mean: 3.5e+08 L⁻¹
[1]; [7]
  Neutrophils in BALF, individual mice: 1.4e+08 L⁻¹ and 1.8e+08 L⁻¹ and 1.2e+08 L⁻¹ and 1.3e+08 L⁻¹ and 2.8e+08 L⁻¹ and 1.7e+08 L⁻¹
  Total cells/white blood cells in BALF, individual mice: 3.3e+08 L⁻¹ and 2.4e+08 L⁻¹ and 3.1e+08 L⁻¹ and 3.4e+08 L⁻¹ and 2.3e+08 L⁻¹ and 3.9e+08 L⁻¹ and 6.6e+08 L⁻¹
[1]; Experiment 2, 35 mg/kg SC
  Neutrophils in BALF: % reduction: 64%
  Total cells/white blood cells in BALF: % reduction: 69%
  Neutrophils in BALF, Mean: 2.2e+08 L⁻¹
  Total cells/white blood cells in BALF, Mean: 5.5e+08 L⁻¹
[1]; [8]
  Neutrophils in BALF, individual mice: 2e+08 L⁻¹ and 1.6e+08 L⁻¹ and 2.4e+08 L⁻¹ and 2.2e+08 L⁻¹ and 3.4e+08 L⁻¹ and 1.9e+08 L⁻¹ and 3.1e+08 L⁻¹ and 1.2e+08 L⁻¹
  Total cells/white blood cells in BALF, individual mice: 9.1e+08 L⁻¹ and 2e+08 L⁻¹ and 7e+08 L⁻¹ and 4.4e+08 L⁻¹ and 4.6e+08 L⁻¹ and 3.7e+08 L⁻¹ and 7.3e+08 L⁻¹ and 5.5e+08 L⁻¹
[1]; Experiment 2, 70 mg/kg SC
  Neutrophils in BALF: % reduction: 77%
  Total cells/white blood cells in BALF: % reduction: 91%
  Neutrophils in BALF, Mean: 1.5e+08 L⁻¹
  Total cells/white blood cells in BALF, Mean: 4.3e+08 L⁻¹
[1]; [9]
  Neutrophils in BALF, individual mice: 1.8e+08 L⁻¹ and 1.7e+08 L⁻¹ and 1.1e+08 L⁻¹ and 1e+08 L⁻¹ and 2.1e+08 L⁻¹ and 1.2e+08 L⁻¹ and 9e+07 L⁻¹
  Total cells/white blood cells in BALF, individual mice: 4.6e+08 L⁻¹ and 2.1e+08 L⁻¹ and 4.3e+08 L⁻¹ and 4.4e+08 L⁻¹ and 3.3e+08 L⁻¹ and 3e+08 L⁻¹ and 5.8e+08 L⁻¹ and 6.7e+08 L⁻¹
[1]; Experiment 2, 140 mg/kg SC
  Neutrophils in BALF: % reduction: 77%
  Total cells/white blood cells in BALF: % reduction: 107%
  Neutrophils in BALF, Mean: 1.5e+08 L⁻¹
  Total cells/white blood cells in BALF, Mean: 3.4e+08 L⁻¹
[1]; [10]
  Neutrophils in BALF, individual mice: 1.6e+08 L⁻¹ and 1.4e+08 L⁻¹ and 1.2e+08 L⁻¹ and 1.7e+08 L⁻¹ and 9e+07 L⁻¹ and 2e+08 L⁻¹
  Total cells/white blood cells in BALF, individual mice: 4.6e+08 L⁻¹ and 3.9e+08 L⁻¹ and 2.6e+08 L⁻¹ and 2.9e+08 L⁻¹ and 3.6e+08 L⁻¹ and 3.3e+08 L⁻¹ and 4.4e+08 L⁻¹ and 2e+08 L⁻¹
[2]; 0.03 µM, n=3, percentage of RLU
  % viability at test concentration vs vehicle control, Mean ± SEM: 105 ± 1.36%
[2]; 0.1 µM, n=3
  % viability at test concentration vs vehicle control, Mean ± SEM: 106 ± 1.34%
[2]; 0.3 µM, n=3
  % viability at test concentration vs vehicle control, Mean ± SEM: 105 ± 2.39%
[2]; 1 µM, n=3
  % viability at test concentration vs vehicle control, Mean ± SEM: 103 ± 4.22%
[2]; 3 µM, n=3
  % viability at test concentration vs vehicle control, Mean ± SEM: 103 ± 3.07%
[2]; 10 µM, n=3
  % viability at test concentration vs vehicle control, Mean ± SEM: 102 ± 2.98%
[2]; 30 μM, cytotoxic if reduction from vehicle ≥20%
  cytotoxic effects: no cytotoxic effects
[2]; 30 µM, n=3
  % viability at test concentration vs vehicle control, Mean ± SEM: 101 ± 2.58%
[2]; 100 µM, n=3
  % viability at test concentration vs vehicle control, Mean ± SEM: 86 ± 2.99%
[2]; 100 µM, n=3, listed as lefamulin
  % viability at test concentration vs vehicle control, Mean ± SEM: 86%
[3]; 30 μM
  cell viability: reduced
[3]; 100 μM
  cell viability: reduced
[3]; 0.03 µM
  fold-change of adenylate kinase release at test concentration vs vehicle control, Mean ± SEM: 1.33 ± 0.11 fold-change
[3]; 0.1 µM
  fold-change of adenylate kinase release at test concentration vs vehicle control, Mean ± SEM: 1.27 ± 0.23 fold-change
[3]; 0.3 µM
  fold-change of adenylate kinase release at test concentration vs vehicle control, Mean ± SEM: 1.10 ± 0.16 fold-change
[3]; 1 µM
  fold-change of adenylate kinase release at test concentration vs vehicle control, Mean ± SEM: 0.89 ± 0.08 fold-change
[3]; 3 µM
  fold-change of adenylate kinase release at test concentration vs vehicle control, Mean ± SEM: 1.12 ± 0.18 fold-change
[3]; 10 µM
  fold-change of adenylate kinase release at test concentration vs vehicle control, Mean ± SEM: 1.26 ± 0.27 fold-change
[3]; 30 µM
  fold-change of adenylate kinase release at test concentration vs vehicle control, Mean ± SEM: 2.00 ± 0.13 fold-change
[3]; 100 µM
  fold-change of adenylate kinase release at test concentration vs vehicle control, Mean ± SEM: 6.18 ± 0.05 fold-change
[4]; PBMCs, 100 μM
  cell viability: reduced
[4]; 0.03 µM
  fold-change of adenylate kinase release at test concentration vs vehicle control, Mean ± SEM: 1.07 ± 0.03 fold-change
[4]; 0.1 µM
  fold-change of adenylate kinase release at test concentration vs vehicle control, Mean ± SEM: 1.04 ± 0.01 fold-change
[4]; 0.3 µM
  fold-change of adenylate kinase release at test concentration vs vehicle control, Mean ± SEM: 1.03 ± 0.02 fold-change
[4]; 1 µM
  fold-change of adenylate kinase release at test concentration vs vehicle control, Mean ± SEM: 1.00 ± 0.01 fold-change
[4]; 3 µM
  fold-change of adenylate kinase release at test concentration vs vehicle control, Mean ± SEM: 0.95 ± 0.01 fold-change
[4]; 10 µM
  fold-change of adenylate kinase release at test concentration vs vehicle control, Mean ± SEM: 0.93 ± 0.01 fold-change
[4]; 30 µM
  fold-change of adenylate kinase release at test concentration vs vehicle control, Mean ± SEM: 0.92 ± 0.03 fold-change
[4]; 100 µM
  fold-change of adenylate kinase release at test concentration vs vehicle control, Mean ± SEM: 1.20 ± 0.03 fold-change
